Experiments:
Assay type in all cases: in vivo
[1] = test system: giant foxtail (Setaria faberi); assay: Test A preemergence, giant foxtail; conditions: 0 to 100 scale (0 no effect, 100 complete control)
Outline: (§1)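 Species planted together in a loam soil and sand blend received compound either as a preemergence soil spray or as a postemergence treatment when 2–10 cm tall with one to two leaves. About ten days later, injury was visually rated relative to untreated plants on a 0–100 scale.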

[2] = test system: morningglory (Ipomoea spp.); assay: Test A preemergence, morningglory; conditions: 0 to 100 scale (0 no effect, 100 complete control)
Outline: as §1

[3] = test system: velvetleaf (Abutilon theophrasti); assay: Test A preemergence, velvetleaf; conditions: 0 to 100 scale (0 no effect, 100 complete control)
Outline: as §1

[4] = test system: wheat (Triticum aestivum); assay: Test A preemergence, wheat; conditions: 0 to 100 scale (0 no effect, 100 complete control)
Outline: as §1

[5] = test system: barnyardgrass (Echinochloa crus-galli); assay: Test A postemergence, barnyardgrass; conditions: 0 to 100 scale (0 no effect, 100 complete control)
Outline: as §1

[6] = test system: large crabgrass (Digitaria sanguinalis); assay: Test A postemergence, large crabgrass; conditions: 0 to 100 scale (0 no effect, 100 complete control)
Outline: as §1

[7] = test system: blackgrass (Alopecurus myosuroides); assay: Test B preemergence, blackgrass; conditions: scale 0 to 100
Outline: (§2)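 Greenhouse preemergence test: loam/sand soil, compound in surfactant-containing non-phytotoxic solvent, evaluated visually after 13–15 days on a 0–100 control scale.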

[8] = test system: green foxtail (Setaria viridis); assay: Test B preemergence, green foxtail; conditions: scale 0 to 100
Outline: as §2

wild oat (Avena fatua) = assay: Test B preemergence, wild oat; conditions: scale 0 to 100
Outline: as §2

corn (Zea mays) = assay: Test B preemergence, corn; conditions: scale 0 to 100
Outline: as §2

[9] = test system: giant foxtail (Setaria faberii); assay: Test B preemergence, giant foxtail; conditions: scale 0 to 100
Outline: as §2

[10] = test system: goosegrass (Eleusine indica); assay: Test B preemergence, goosegrass; conditions: scale 0 to 100
Outline: as §2

[11] = test system: morningglory (Ipomoea coccinea); assay: Test B preemergence, morningglory; conditions: scale 0 to 100
Outline: as §2

[12] = test system: yellow nutsedge (Cyperus esculentus); assay: Test B preemergence, yellow nutsedge; conditions: scale 0 to 100
Outline: as §2

[13] = test system: ragweed (common ragweed, Ambrosia elatior); assay: Test B preemergence, ragweed; conditions: scale 0 to 100
Outline: as §2

soybean (Glycine max) = assay: Test B preemergence, soybean; conditions: Preemergence, scale 0 to 100
Outline: as §2

[14] = test system: velvetleaf (Abutilon theophrasti); assay: Test B preemergence, velvetleaf; conditions: Preemergence, scale 0 to 100
Outline: as §2

rice (Oryza sativa) = assay: Test B flooded paddy test, rice; conditions: Flood, scale 0 to 100
Outline: (§3)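 Paddy-water application to 2-leaf plants in pots held under 3 cm of flooding; response is a 0–100 visual control rating against controls after 13 to 15 days, and a dash marks a missing result.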

[15] = test system: ducksalad (Heteranthera limosa); assay: Test B flooded paddy test, ducksalad; conditions: Flood, scale 0 to 100
Outline: as §3

CC1(C)CC(S(=O)(=O)Cc2c(C(F)(F)C(F)(F)F)nc3n(c2=O)CCCC3)=NO1 [Compound 21]
Plant response rating, Foxtail, Giant ([1]; 125 g ai/ha): 90
Plant response rating, Foxtail, Giant ([1]; 500 g ai/ha): 100
Plant response rating, Morningglory ([2]; 125 g ai/ha): 0
Plant response rating, Morningglory ([2]; 500 g ai/ha): 50
Plant response rating, Velvetleaf ([3]; 125 g ai/ha): 0
Plant response rating, Velvetleaf ([3]; 500 g ai/ha): 60
Plant response rating, Wheat ([4]; 125 g ai/ha): 0
Plant response rating, Wheat ([4]; 500 g ai/ha): 40
Plant response rating, Barnyardgrass ([5]; 125 g ai/ha): 70
Plant response rating, Barnyardgrass ([5]; 500 g ai/ha): 90
Plant response rating, Crabgrass, Large ([6]; 125 g ai/ha): 50
Plant response rating, Crabgrass, Large ([6]; 500 g ai/ha): 80
Plant response rating, Blackgrass ([7]; 16 g ai/ha): 40
Plant response rating, Blackgrass ([7]; 31 g ai/ha): 40
Plant response rating, Blackgrass ([7]; 62 g ai/ha): 50
Plant response rating, Blackgrass ([7]; 125 g ai/ha): 98
Plant response rating, Foxtail, Green ([8]; 16 g ai/ha): 0
Plant response rating, Foxtail, Green ([8]; 31 g ai/ha): 45
Plant response rating, Foxtail, Green ([8]; 62 g ai/ha): 100
Plant response rating, Foxtail, Green ([8]; 125 g ai/ha): 100
Plant response rating, Oat, Wild (wild oat (Avena fatua); 16 g ai/ha): 0
Plant response rating, Oat, Wild (wild oat (Avena fatua); 31 g ai/ha): 30
Plant response rating, Oat, Wild (wild oat (Avena fatua); 62 g ai/ha): 30
Plant response rating, Oat, Wild (wild oat (Avena fatua); 125 g ai/ha): 40
Plant response rating, Corn (corn (Zea mays); 16 g ai/ha): 0
Plant response rating, Corn (corn (Zea mays); 31 g ai/ha): 0
Plant response rating, Corn (corn (Zea mays); 62 g ai/ha): 0
Plant response rating, Corn (corn (Zea mays); 125 g ai/ha): 10
Plant response rating, Foxtail, Giant ([9]; 16 g ai/ha): 0
Plant response rating, Foxtail, Giant ([9]; 31 g ai/ha): 60
Plant response rating, Foxtail, Giant ([9]; 62 g ai/ha): 80
Plant response rating, Foxtail, Giant ([9]; 125 g ai/ha): 85
Plant response rating, Goosegrass ([10]; 16 g ai/ha): 50
Plant response rating, Goosegrass ([10]; 31 g ai/ha): 98
Plant response rating, Goosegrass ([10]; 62 g ai/ha): 100
Plant response rating, Goosegrass ([10]; 125 g ai/ha): 100
Plant response rating, Morningglory ([11]; 16 g ai/ha): 0
Plant response rating, Morningglory ([11]; 31 g ai/ha): 10
Plant response rating, Morningglory ([11]; 62 g ai/ha): 80
Plant response rating, Morningglory ([11]; 125 g ai/ha): 100
Plant response rating, Nutsedge, Yellow ([12]; 16 g ai/ha): 0
Plant response rating, Nutsedge, Yellow ([12]; 31 g ai/ha): 20
Plant response rating, Nutsedge, Yellow ([12]; 62 g ai/ha): 60
Plant response rating, Nutsedge, Yellow ([12]; 125 g ai/ha): 90
Plant response rating, Ragweed ([13]; 16 g ai/ha): 0
Plant response rating, Ragweed ([13]; 31 g ai/ha): 0
Plant response rating, Ragweed ([13]; 62 g ai/ha): 0
Plant response rating, Ragweed ([13]; 125 g ai/ha): 10
Plant response rating, Soybean (soybean (Glycine max); 16 g ai/ha): 0
Plant response rating, Soybean (soybean (Glycine max); 31 g ai/ha): 0
Plant response rating, Soybean (soybean (Glycine max); 62 g ai/ha): 0
Plant response rating, Soybean (soybean (Glycine max); 125 g ai/ha): 0
Plant response rating, Velvetleaf ([14]; 16 g ai/ha): 0
Plant response rating, Velvetleaf ([14]; 31 g ai/ha): 0
Plant response rating, Velvetleaf ([14]; 62 g ai/ha): 0
Plant response rating, Velvetleaf ([14]; 125 g ai/ha): 75
Plant response rating, Rice (rice (Oryza sativa); 62 g ai/ha): 0
Plant response rating, Rice (rice (Oryza sativa); 250 g ai/ha): 0
Plant response rating, Ducksalad ([15]; 62 g ai/ha): 0
Plant response rating, Ducksalad ([15]; 250 g ai/ha): 0

CC1(C)CC(S(=O)(=O)Cc2c(C(F)(F)C(F)(F)F)nc3n(c2=O)CCC3)=NO1 [Compound 22]
Plant response rating, Foxtail, Giant ([1]; 125 g ai/ha): 90
Plant response rating, Foxtail, Giant ([1]; 500 g ai/ha): 100
Plant response rating, Morningglory ([2]; 125 g ai/ha): 50
Plant response rating, Morningglory ([2]; 500 g ai/ha): 80
Plant response rating, Velvetleaf ([3]; 125 g ai/ha): 30
Plant response rating, Velvetleaf ([3]; 500 g ai/ha): 90
Plant response rating, Wheat ([4]; 125 g ai/ha): 0
Plant response rating, Wheat ([4]; 500 g ai/ha): 50
Plant response rating, Barnyardgrass ([5]; 125 g ai/ha): 70
Plant response rating, Barnyardgrass ([5]; 500 g ai/ha): 80
Plant response rating, Crabgrass, Large ([6]; 125 g ai/ha): 70
Plant response rating, Crabgrass, Large ([6]; 500 g ai/ha): 80
Plant response rating, Blackgrass ([7]; 16 g ai/ha): 0
Plant response rating, Blackgrass ([7]; 31 g ai/ha): 40
Plant response rating, Blackgrass ([7]; 62 g ai/ha): 40
Plant response rating, Blackgrass ([7]; 125 g ai/ha): 98
Plant response rating, Foxtail, Green ([8]; 16 g ai/ha): 50
Plant response rating, Foxtail, Green ([8]; 31 g ai/ha): 70
Plant response rating, Foxtail, Green ([8]; 62 g ai/ha): 100
Plant response rating, Foxtail, Green ([8]; 125 g ai/ha): 100
Plant response rating, Oat, Wild (wild oat (Avena fatua); 16 g ai/ha): 0
Plant response rating, Oat, Wild (wild oat (Avena fatua); 31 g ai/ha): 0
Plant response rating, Oat, Wild (wild oat (Avena fatua); 62 g ai/ha): 30
Plant response rating, Oat, Wild (wild oat (Avena fatua); 125 g ai/ha): 40
Plant response rating, Corn (corn (Zea mays); 16 g ai/ha): 0
Plant response rating, Corn (corn (Zea mays); 31 g ai/ha): 0
Plant response rating, Corn (corn (Zea mays); 62 g ai/ha): 0
Plant response rating, Corn (corn (Zea mays); 125 g ai/ha): 10
Plant response rating, Foxtail, Giant ([9]; 16 g ai/ha): 50
Plant response rating, Foxtail, Giant ([9]; 31 g ai/ha): 50
Plant response rating, Foxtail, Giant ([9]; 62 g ai/ha): 90
Plant response rating, Foxtail, Giant ([9]; 125 g ai/ha): 100
Plant response rating, Goosegrass ([10]; 16 g ai/ha): 30
Plant response rating, Goosegrass ([10]; 31 g ai/ha): 80
Plant response rating, Goosegrass ([10]; 62 g ai/ha): 100
Plant response rating, Goosegrass ([10]; 125 g ai/ha): 100
Plant response rating, Morningglory ([11]; 16 g ai/ha): 0
Plant response rating, Morningglory ([11]; 31 g ai/ha): 0
Plant response rating, Morningglory ([11]; 62 g ai/ha): 70
Plant response rating, Morningglory ([11]; 125 g ai/ha): 100
Plant response rating, Nutsedge, Yellow ([12]; 16 g ai/ha): 0
Plant response rating, Nutsedge, Yellow ([12]; 31 g ai/ha): 10
Plant response rating, Nutsedge, Yellow ([12]; 62 g ai/ha): 60
Plant response rating, Nutsedge, Yellow ([12]; 125 g ai/ha): 80
Plant response rating, Ragweed ([13]; 16 g ai/ha): 0
Plant response rating, Ragweed ([13]; 31 g ai/ha): 0
Plant response rating, Ragweed ([13]; 62 g ai/ha): 30
Plant response rating, Ragweed ([13]; 125 g ai/ha): 50
Plant response rating, Soybean (soybean (Glycine max); 16 g ai/ha): 0
Plant response rating, Soybean (soybean (Glycine max); 31 g ai/ha): 0
Plant response rating, Soybean (soybean (Glycine max); 62 g ai/ha): 0
Plant response rating, Soybean (soybean (Glycine max); 125 g ai/ha): 0
Plant response rating, Velvetleaf ([14]; 16 g ai/ha): 0
Plant response rating, Velvetleaf ([14]; 31 g ai/ha): 0
Plant response rating, Velvetleaf ([14]; 62 g ai/ha): 60
Plant response rating, Velvetleaf ([14]; 125 g ai/ha): 100
Plant response rating, Rice (rice (Oryza sativa); 62 g ai/ha): 0
Plant response rating, Rice (rice (Oryza sativa); 250 g ai/ha): 10
Plant response rating, Ducksalad ([15]; 62 g ai/ha): 0
Plant response rating, Ducksalad ([15]; 250 g ai/ha): 0
